One assay concerns H929 cells. Nature of the assay: Cell viability assay (H929 10 FBS). The settings on record: Homo sapiens, NCI-H929, 24 hours, read-out: H929_10FBS IC50. Format: cell-based. In a few lines: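 ATP-based luminescence (CellTiter-Glo or ATPlite 1 Step, 30-60 min at RT) gauged viability of H929 myeloma cells after 24 h compound treatment at 37 °C. Cells plated at 4000 per well in 10% FBS RPMI 1640 supplemented with pyruvate, HEPES and glucose.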

The next assay deals with MCL-1 (Homo sapiens (Human), UniProt Q07820). Nature of the assay: Cell free Mcl-1:Bim affinity assay (fluorescence polarization competition). To be noted: 15 nM MCL-1, 5 nM FITC-Bim, 1 hour at room temperature, read-out: BIM_Ki. It counts as binding. The procedure, abridged: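 Fluorescence polarization competition: 10-point 3-fold compound dilutions displaced 5 nM FITC-Bim from 15 nM MCL-1 over 1 h at room temperature. Ki was derived from the fitted IC50 using the Nikolovska-Coleska equation, with percent inhibition normalized to DMSO and positive controls.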

Read-outs that look alike come from different tables or passages of the source.

One may read the IC50 as the concentration at which inhibition is half-maximal.

Chain of MCL-1 (Q07820 whole entry): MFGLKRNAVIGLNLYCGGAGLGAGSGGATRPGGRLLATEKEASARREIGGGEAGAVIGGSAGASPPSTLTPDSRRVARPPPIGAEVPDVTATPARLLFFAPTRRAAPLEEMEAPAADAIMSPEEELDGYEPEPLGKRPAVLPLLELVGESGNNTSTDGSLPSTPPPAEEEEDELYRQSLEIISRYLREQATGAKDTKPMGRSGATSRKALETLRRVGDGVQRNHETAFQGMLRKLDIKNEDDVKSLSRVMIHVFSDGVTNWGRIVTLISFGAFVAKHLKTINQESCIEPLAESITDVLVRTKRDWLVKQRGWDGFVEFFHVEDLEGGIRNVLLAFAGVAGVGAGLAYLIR

For the compound `CN(C(=O)O[C@H]1/C=C/CN(C)C2(CCC2)C(=O)NS(=O)(=O)c2ccc3c(c2)N(C[C@@H]2CC[C@H]21)C[C@@]1(CCCc2cc(Cl)ccc21)CO3)[C@H]1CCOC1` [Example 241, [(3R,6R,7S,8E,22S)-6′-Chloro-11-methyl-12,12-(1,3-propylene)-13,15,15-trioxo-spiro[20-oxa-15-thia-1,11,14-triazatetracyclo[14.7.2.03,6.019,24]pentacosa-8,16,18,24-tetraene-22,1′-tetralin]-7-yl] N-methyl-N-[(3S)-tetrahydrofuran-3-yl]carbamate], in the assay with H929 cells, the IC50 is below 500 nM. The Ki at MCL-1 (class symbols) is below 1 nM.
For `COCCN1CCCN(CCO[C@H]2/C=C/CN(C)C(C)(C)C(=O)NS(=O)(=O)c3ccc4c(c3)N(C[C@@H]3CC[C@H]32)C[C@@]2(CCCc3cc(Cl)ccc32)CO4)CC1` [Example 277, (3R,6R,7S,8E,22S)-6′-Chloro-7-[2-[4-(2-methoxyethyl)-1,4-diazepan-1-yl]ethoxy]-11,12,12-trimethyl-15,15-dioxo-spiro[20-oxa-15-thia-1,11,14-triazatetracyclo[14.7.2.03,6.019,24]pentacosa-8,16,18,24-tetraene-22,1′-tetralin]-13-one] the same measures were above 1000 nM and 1 to 100 nM.
In the case of `CC(=O)NS(=O)(=O)c1ccc2c(c1)N(CC1CCCCC1)CC1(CCCc3cc(Cl)ccc31)CO2` (centres unmarked) [Example 3, N-[6′-Chloro-5-(cyclohexylmethyl)spiro[2,4-dihydro-1,5-benzoxazepine-3,1′-tetralin]-7-yl]sulfonylacetamide], the IC50 with H929 cells was above 1000 nM. Besides, at MCL-1 (numeric values), the Ki amounted to 143 nM.
For `CN(C(=O)O[C@H]1/C=C/CN(C)C(C)(C)C(=O)NS(=O)(=O)c2ccc3c(c2)N(C[C@@H]2CC[C@H]21)C[C@@]1(CCCc2cc(Cl)ccc21)CO3)[C@@H]1CCOC1` [Example 218, [(3R,6R,7S,8E,22S)-6′-Chloro-11,12,12-trimethyl-13,15,15-trioxo-spiro[20-oxa-15-thia-1,11,14-triazatetracyclo[14.7.2.03,6.019,24]pentacosa-8,16,18,24-tetraene-22,1′-tetralin]-7-yl] N-methyl-N-[(3R)-tetrahydrofuran-3-yl]carbamate], in the assay on H929 cells, the IC50 was below 500 nM. The Ki at MCL-1 (class symbols) is below 1 nM.
Taken in the same sequence, the figures for `CN(C(=O)O[C@H]1/C=C/CN(C)C2(CCC2)C(=O)NS(=O)(=O)c2ccc3c(c2)N(C[C@@H]2CC[C@H]21)C[C@@]1(CCCc2cc(Cl)ccc21)CO3)[C@@H]1CCOC1` [Example 242, [(3R,6R,7S,8E,22S)-6′-Chloro-11-methyl-12,12-(1,3-propylene)-13,15,15-trioxo-spiro[20-oxa-15-thia-1,11,14-triazatetracyclo[14.7.2.03,6.019,24]pentacosa-8,16,18,24-tetraene-22,1′-tetralin]-7-yl] N-methyl-N-[(3R)-tetrahydrofuran-3-yl]carbamate] were below 500 nM and below 1 nM.
Taken in the same sequence, the figures for `CO[C@@H]1/C=C/C[C@H](C)[C@@H](CC(=O)N(C)C)C(=O)NS(=O)(=O)c2ccc3c(c2)N(C[C@@H]2CC[C@H]21)C[C@@]1(CCCc2cc(Cl)ccc21)CO3` [Example 91, 2-[(3R,6R,7R,8E,11S,12R,22S)-6′-Chloro-7-methoxy-11-methyl-13,15,15-trioxo-spiro[20-oxa-15-thia-1,14-diazatetracyclo[14.7.2.03,6.019,24]pentacosa-8,16,18,24-tetraene-22,1′-tetralin]-12-yl]-N,N-dimethyl-acetamide] were above 1000 nM and 1 to 100 nM.
For `CO[C@@H]1CCCCC(=O)NS(=O)(=O)c2ccc3c(c2)N(C[C@@H]2CC[C@H]21)C[C@@]1(CCCc2cc(Cl)ccc21)CO3` [Example 76, (3R,6R,7R,21S)-6′-Chloro-7-methoxy-14,14-dioxo-spiro[19-oxa-14-thia-1,13-diazatetracyclo[13.7.2.03,6.018,23]tetracosa-15,17,23-triene-21,1′-tetralin]-12-one] the same measures were above 1000 nM and 1 to 100 nM.
For `CC1(C)OC/C=C/[C@H](OCCN2CCOCC2)[C@@H]2CC[C@H]2CN2C[C@@]3(CCCc4cc(Cl)ccc43)COc3ccc(cc32)S(=O)(=O)NC1=O` [Example 270, (3R,6R,7S,8E,22S)-6′-Chloro-12,12-dimethyl-7-(2-morpholinoethoxy)-15,15-dioxo-spiro[11,20-dioxa-15-thia-1,14-diazatetracyclo[14.7.2.03,6.019,24]pentacosa-8,16,18,24-tetraene-22,1′-tetralin]-13-one], the IC50 with H929 cells was below 500 nM. In addition, the Ki on MCL-1 (class symbols) is below 1 nM.
Consider `CN([C@H]1/C=C/COC(C)(C)C(=O)NS(=O)(=O)c2ccc3c(c2)N(C[C@@H]2CC[C@H]21)C[C@@]1(CCCc2cc(Cl)ccc21)CO3)S(C)(=O)=O` [Example 256, N-Methyl-N-[(3R,6R,7S,8E,22S)-6′-chloro-12,12-dimethyl-13,15,15-trioxo-spiro[11,20-dioxa-15-thia-1,14-diazatetracyclo[14.7.2.03,6.019,24]pentacosa-8,16(25),17,19(24)-tetraene-22,1′-tetralin]-7-yl]methanesulfonamide], for which the IC50 with H929 cells is above 1000 nM. In addition, the Ki on MCL-1 (class symbols) lay within 1 to 100 nM.
Taken in the same sequence, the figures for `CN1C/C=C/[C@H](OC(=O)N2CCN3CCOCC3C2)[C@@H]2CC[C@H]2CN2C[C@@]3(CCCc4cc(Cl)ccc43)COc3ccc(cc32)S(=O)(=O)NC(=O)C1(C)C` (stereo in doubt) [Example 208, [(3R,6R,7S,8E,22S)-6′-Chloro-11,12,12-trimethyl-13,15,15-trioxo-spiro[20-oxa-15-thia-1,11,14-triazatetracyclo[14.7.2.03,6.019,24]pentacosa-8,16,18,24-tetraene-22,1′-tetralin]-7-yl] (9aS)-3,4,6,7,9,9a-hexahydro-1H-pyrazino[2,1-c][1,4]oxazine-8-carboxylate] were below 500 nM and 1 to 100 nM.
Consider `CO[C@@H]1/C=C/C[C@H](C)[C@@H](C)C(=O)NS(=O)(=O)c2ccc3c(c2)N(C[C@@H]2CC[C@H]21)C[C@@]1(CCCc2cc(Cl)ccc21)CO3` [Example 78, (3R,6R,7R,8E,1S,12R,22S)-6′-Chloro-7-methoxy-11,12-dimethyl-15,15-dioxo-spiro[20-oxa-15-thia-1,14-diazatetracyclo[14.7.2.03,6.019,24]pentacosa-8,16,18,24-tetraene-22,1′-tetralin]-13-one], for which the IC50 with H929 cells was above 1000 nM. In addition, the Ki on MCL-1 (class symbols) was in the range of 1 to 100 nM.
Taken in the same sequence, the figures for `CN(C(=O)O[C@H]1/C=C/COC2(CCC2)C(=O)NS(=O)(=O)c2ccc3c(c2)N(C[C@@H]2CC[C@H]21)C[C@@]1(CCCc2cc(Cl)ccc21)CO3)C1COC1` [Example 235, [(3R,6R,7S,8E,22S)-6′-Chloro-12,12-(1,3-propylene)-13,15,15-trioxo-spiro[11,20-dioxa-15-thia-1,14-diazatetracyclo[14.7.2.03,6.019,24]pentacosa-8,16,18,24-tetraene-22,1′-tetralin]-7-yl] N-methyl-N-(oxetan-3-yl)carbamate] were below 500 nM and below 1 nM.
For `COC[C@@H]1OC/C=C/[C@@H](OC)[C@@H]2CC[C@H]2CN2C[C@@]3(CCCc4cc(Cl)ccc43)COc3ccc(cc32)S(=O)(=O)NC1=O` [Example 125, (3R,6R,7R,8E,12S,22S)-6′-Chloro-7-methoxy-12-(methoxymethyl)-15,15-dioxo-spiro[11,20-dioxa-15-thia-1,14-diazatetracyclo[14.7.2.03,6.019,24]pentacosa-8,16(25),17,19(24)-tetraene-22,1′-tetralin]-13-one] the same measures were above 1000 nM and below 1 nM.

The record behind these values is US11130769B2 (Prelude Therapeutics Incorporated, priority 2018, dated 2021).
